Measured values taken from patent publication US20070274956A1, “Plant Germination Inhibitor And Method Of Use Thereof” (priority 2004, published 2007).

Tested on: Oryzias latipes var.
Test: Harm to fish grown in treated water
Format: in vivo
Conditions: 10 males and 10 females grown in aqueous solution, 1×10^−2 g/l; one week
Description: Forty Oryzias latipes var. (20 males and 20 females) were divided into two groups (each group: 10 males and 10 females). One group was grown in an aqueous solution of the coloring matter xylindein (1×10^−2 g/l) and the other was grown in water in the presence of wood on which mycelia of Chlorociboria aeruginosa developed and which was rotten and stained blue.

Structure (SMILES): CCC[C@H]1Cc2c(c(O)c3c(=O)cc4oc5c6c(c(O)c7c(=O)cc8oc2c3c4c8c57)C(=O)O[C@@H](CCC)C6)C(=O)O1 [xylindein]
- anomaly in the fish: no anomaly was observed
